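Assay format: 96-well plates, 48-hour exposure. TGI: total growth inhibition.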
Key:
Assay in all cases: inhibition of tumour cell growth, NCI panel, 48 h
A549 NSCLC = tested on: A549 NSCLC
ACHN renal = tested on: ACHN renal
CCRF-CEM leukemia = tested on: CCRF-CEM leukemia
COLO 205 colon = tested on: COLO 205 colon
DMS 114 small cell lung = tested on: DMS 114 small cell lung
DMS 273 small cell lung = tested on: DMS 273 small cell lung
EKVX NSCLC = tested on: EKVX NSCLC
HCC-2998 colon = tested on: HCC-2998 colon
HCT-116 colon = tested on: HCT-116 colon
HCT-15 colon = tested on: HCT-15 colon
HL-60(TB) leukemia = tested on: HL-60(TB) leukemia
HOP-18 NSCLC = tested on: HOP-18 NSCLC
HOP-62 NSCLC = tested on: HOP-62 NSCLC
HOP-92 NSCLC = tested on: HOP-92 NSCLC
HT29 colon = tested on: HT29 colon
IGROV1 ovarian = tested on: IGROV1 ovarian
K-562 leukemia = tested on: K-562 leukemia
KM12 colon = tested on: KM12 colon
KM20L2 colon = tested on: KM20L2 colon
LOX IMVI melanoma = tested on: LOX IMVI melanoma
LXFL 529 NSCLC = tested on: LXFL 529 NSCLC
M14 melanoma = tested on: M14 melanoma
M19-MEL melanoma = tested on: M19-MEL melanoma
MOLT-4 leukemia = tested on: MOLT-4 leukemia
NCI-H23 lung = tested on: NCI-H23 lung
NCI-H460 lung = tested on: NCI-H460 lung
OVCAR-3 ovarian = tested on: OVCAR-3 ovarian
OVCAR-4 ovarian = tested on: OVCAR-4 ovarian
OVCAR-5 ovarian = tested on: OVCAR-5 ovarian
OVCAR-8 ovarian = tested on: OVCAR-8 ovarian
RPMI-8226 leukemia = tested on: RPMI-8226 leukemia
RXF 393 renal = tested on: RXF 393 renal
SF-268 CNS = tested on: SF-268 CNS
SF-539 CNS = tested on: SF-539 CNS
SK-MEL-2 melanoma = tested on: SK-MEL-2 melanoma
SK-MEL-28 melanoma = tested on: SK-MEL-28 melanoma
SK-MEL-5 melanoma = tested on: SK-MEL-5 melanoma
SN12C renal = tested on: SN12C renal
SNB-19 CNS = tested on: SNB-19 CNS
SNB-75 CNS = tested on: SNB-75 CNS
SNB-78 CNS = tested on: SNB-78 CNS
SR leukemia = tested on: SR leukemia
SW-620 colon = tested on: SW-620 colon
TK-10 renal = tested on: TK-10 renal
U251 CNS = tested on: U251 CNS
UACC-257 melanoma = tested on: UACC-257 melanoma
UACC-62 melanoma = tested on: UACC-62 melanoma
UO-31 renal = tested on: UO-31 renal
786-0 renal = tested on: 786-0 renal
A498 renal = tested on: A498 renal
BT-549 breast = tested on: BT-549 breast
CAKI-1 renal = tested on: CAKI-1 renal
DU-145 prostate = tested on: DU-145 prostate
HS 578T breast = tested on: HS 578T breast
MCF7 breast = tested on: MCF7 breast
MDA-MB-231 breast = tested on: MDA-MB-231 breast
MDA-MB-435 = tested on: MDA-MB-435
MDA-N = tested on: MDA-N
NCI-H226 lung = tested on: NCI-H226 lung
NCI/ADR-RES ovarian = tested on: NCI/ADR-RES ovarian
PC-3 prostate = tested on: PC-3 prostate
SF-295 CNS = tested on: SF-295 CNS
SK-OV-3 ovarian = tested on: SK-OV-3 ovarian
T-47D breast = tested on: T-47D breast

COc1ccc(-c2nnc3c4ccccc4sn23)cc1
TGI (A549 NSCLC): > 100 µM
TGI (ACHN renal): > 100 µM
TGI (CCRF-CEM leukemia): 33.7 µM
TGI (COLO 205 colon): > 100 µM
TGI (DMS 114 small cell lung): 93.8 µM
TGI (DMS 273 small cell lung): > 100 µM
TGI (EKVX NSCLC): > 100 µM
TGI (HCC-2998 colon): > 100 µM
TGI (HCT-116 colon): > 100 µM
TGI (HCT-15 colon): > 100 µM
TGI (HL-60(TB) leukemia): 45.4 µM
TGI (HOP-18 NSCLC): 83.9 µM
TGI (HOP-62 NSCLC): > 100 µM
TGI (HOP-92 NSCLC): > 100 µM
TGI (HT29 colon): > 100 µM
TGI (IGROV1 ovarian): > 100 µM
TGI (K-562 leukemia): > 100 µM
TGI (KM12 colon): > 100 µM
TGI (KM20L2 colon): > 100 µM
TGI (LOX IMVI melanoma): > 100 µM
TGI (LXFL 529 NSCLC): > 100 µM
TGI (M14 melanoma): > 100 µM
TGI (M19-MEL melanoma): > 100 µM
TGI (MOLT-4 leukemia): > 100 µM
TGI (NCI-H23 lung): > 100 µM
TGI (NCI-H460 lung): > 100 µM
TGI (OVCAR-3 ovarian): 61.5 µM
TGI (OVCAR-4 ovarian): > 100 µM
TGI (OVCAR-5 ovarian): > 100 µM
TGI (OVCAR-8 ovarian): > 100 µM
TGI (RPMI-8226 leukemia): > 100 µM
TGI (RXF 393 renal): 82.5 µM
TGI (SF-268 CNS): > 100 µM
TGI (SF-539 CNS): > 100 µM
TGI (SK-MEL-2 melanoma): > 100 µM
TGI (SK-MEL-28 melanoma): > 100 µM
TGI (SK-MEL-5 melanoma): > 100 µM
TGI (SN12C renal): > 100 µM
TGI (SNB-19 CNS): > 100 µM
TGI (SNB-75 CNS): 87.3 µM
TGI (SNB-78 CNS): > 100 µM
TGI (SR leukemia): > 100 µM
TGI (SW-620 colon): > 100 µM
TGI (TK-10 renal): > 100 µM
TGI (U251 CNS): > 100 µM
TGI (UACC-257 melanoma): 73.8 µM
TGI (UACC-62 melanoma): > 100 µM
TGI (UO-31 renal): 80.5 µM

O=c1cc(CN2CCCCC2)[nH]c2c1ccc1nc(CN3CCCCC3)cc(=O)n12
TGI (786-0 renal): > 100 µM
TGI (A498 renal): > 100 µM
TGI (A549 NSCLC): > 100 µM
TGI (ACHN renal): > 100 µM
TGI (BT-549 breast): > 100 µM
TGI (CAKI-1 renal): > 100 µM
TGI (CCRF-CEM leukemia): > 100 µM
TGI (COLO 205 colon): > 100 µM
TGI (DU-145 prostate): > 100 µM
TGI (EKVX NSCLC): > 100 µM
TGI (HCC-2998 colon): > 100 µM
TGI (HCT-116 colon): > 100 µM
TGI (HCT-15 colon): > 100 µM
TGI (HL-60(TB) leukemia): > 100 µM
TGI (HOP-62 NSCLC): > 100 µM
TGI (HOP-92 NSCLC): > 100 µM
TGI (HS 578T breast): > 100 µM
TGI (HT29 colon): > 100 µM
TGI (IGROV1 ovarian): > 100 µM
TGI (K-562 leukemia): > 100 µM
TGI (KM12 colon): > 100 µM
TGI (LOX IMVI melanoma): > 100 µM
TGI (M14 melanoma): > 100 µM
TGI (MCF7 breast): > 100 µM
TGI (MDA-MB-231 breast): > 100 µM
TGI (MDA-MB-435): > 100 µM
TGI (MDA-N): > 100 µM
TGI (MOLT-4 leukemia): > 100 µM
TGI (NCI-H226 lung): > 100 µM
TGI (NCI-H23 lung): > 100 µM
TGI (NCI-H460 lung): > 100 µM
TGI (NCI/ADR-RES ovarian): > 100 µM
TGI (OVCAR-3 ovarian): > 100 µM
TGI (OVCAR-4 ovarian): > 100 µM
TGI (OVCAR-5 ovarian): > 100 µM
TGI (OVCAR-8 ovarian): > 100 µM
TGI (PC-3 prostate): > 100 µM
TGI (RPMI-8226 leukemia): > 100 µM
TGI (RXF 393 renal): > 100 µM
TGI (SF-268 CNS): > 100 µM
TGI (SF-295 CNS): > 100 µM
TGI (SF-539 CNS): > 100 µM
TGI (SK-MEL-2 melanoma): > 100 µM
TGI (SK-MEL-28 melanoma): > 100 µM
TGI (SK-MEL-5 melanoma): > 100 µM
TGI (SK-OV-3 ovarian): > 100 µM
TGI (SN12C renal): > 100 µM
TGI (SNB-19 CNS): > 100 µM
TGI (SNB-75 CNS): > 100 µM
TGI (SR leukemia): > 100 µM
TGI (SW-620 colon): > 100 µM
TGI (T-47D breast): > 100 µM
TGI (TK-10 renal): > 100 µM
TGI (U251 CNS): > 100 µM
TGI (UACC-257 melanoma): > 100 µM
TGI (UACC-62 melanoma): > 100 µM
TGI (UO-31 renal): > 100 µM

Source: PubChem BioAssay (NCI)
